The source of these data is US11274131B2, “IgM-mediated receptor clustering and cell modulation” (MAYO FOUNDATION FOR MEDICAL EDUCATION AND RESEARCH, priority 2007, dated 2022).

Experiment [1] has as its system matured human monocyte-derived DC. Briefly: Antigen uptake assay, matured human DC. The note with it: matured human DC, OVA-FITC. It is filed as cell-based. As to the method: FIGS. 2A to 2G are a series of pictures showing that a kinase activated pathway regulates antibody-induced antigen uptake by matured DC. Matured human monocyte-derived DC were treated with the MTAb B7-DC XAb for varying time periods and evaluated for the phosphorylation status of select signaling pathway intermediates by immunoprecipitation with DAP12 (MC457), Syk (4D10), and PLCγ1 (MC490) reactive antibodies followed by western blot analysis using the phosphotyrosine reactive antibody 4G10 as a probe (FIGS. 2A-2C). Samples of the cells blocked with indicated concentration of piceatannol (FIG. 2D) or with […] of piceatannol (FIG. 2E) were analyzed for phosphorylation of Syk (FIG. 2D) and PLCγ1 (FIG. 2E). To investigate the functional importance of these signaling intermediates in the regulation of antigen uptake by matured DC activated with B7-DC XAb, varying concentrations of pharmacologic inhibitors were used to block the activity of p72Syk (piceatannol) and PLCγ1 (U73122) (FIGS. 2F and 2G, respectively). Antigen uptake was assessed by pulsing cultures with FITC-conjugated ovalbumin and measuring intracellular fluorescence 16 hours later in CD11c positive cells by flow cytometry.
Human DC were generated from peripheral blood CD14^+ monocytes by incubation in GM-CSF and IL-4 for five days. […] All cultures were pulsed with OVA-FITC at the time of treatment with IgM antibodies, and […] OVA-FITC was assessed 24 hours later by flow cytometry.
FIGS. 4A and 4B are a series of plots showing the effects of kinase inhibitors on OVA-FITC uptake by matured human DC, as determined by flow cytometry. […] All cells were pulsed with OVA-FITC at the time of treatment with IgM antibody, and CD11c+ cells were analyzed for OVA-FITC uptake 24 hours later by flow cytometry. […]
Antigen uptake experiments were carried out as described previously (Radhakrishnan et al. (2005) Proc. Natl. Acad. Sci. U.S.A. 102:11438-11443). […] The matured cells were incubated with ovalbumin labeled with FITC or APC and control antibody or B7-DC XAb for two hours, washed and analyzed by FACSCALIBUR™ (Becton Dickinson). […]

Another experiment has as its system NF-κB. As to the kind of experiment: NFκB activation assay in mouse DC. It is filed as cell-based. As to the method: DC of murine or human origin were stimulated with 10 μg/ml of control antibody or the MTAb B7-DC XAb for 30 minutes, while stimulation of oligodendrocytes was achieved by addition of 10 μg/ml of MTAb sHIgM39, 04, or sHIgM22 for same period of time. All groups were fixed and permeabilized using a Cytofix/Cytoperm Kit (BD PharMingen, San Diego, Calif.) for 20 minutes on ice. Subsequently, rabbit antibody against a C terminal peptide of NF-kB (sc372) was added, incubated for 30 minutes at 4° C. and washed three times with Cytoperm Buffer. Anti-rabbit FITC was used to detect the bound sc372 antibody by incubating the cells for 30 minutes (green). Cells were washed three times before the nuclei were stained with DAPI (blue) (Sigma Aldrich). The cells were then harvested from the plate, cytospin slides were made, and cells were visualized using a LSM510 Laser scanning confocal microscope (Carl-Zeiss Inc, Oberkochen, Germany) at 40.times magnification.

“Also recorded” adds a separate entry of the source.

In the case of “B7-DC XAb: human monoclonal IgM from a Waldenstrom's macroglobulinemia patient that binds and cross-links B7-DC on DC”, the “antigen uptake by matured DC” value in experiment [1] is “regaining the ability to take up antigen; also recorded: take up ovalbumin when activated”. Further, the NF-κB activation entry with NF-κB (DC from CD40 KO mice) is on record as “absence of NF-κB activation”; with NF-κB (DC from wild type mice) it was “activating NF-κB”. For the same substance, in the experiment with NF-κB (TREM-2 KO cells), the NF-κB mobilization entry was “mobilization of NF-κB”.
